Results as given in ChEMBL document CHEMBL4041532, “Zinc-Metalloproteinase Inhibitors: Evaluation of the Complex Role Played by the Zinc-Binding Group on Potency and Selectivity” (J Med Chem, 2017).
Active and inactive are the calls of the source. The rule behind the calls is not given here.

Assays:
[1] = target: 72 kDa type IV collagenase (Homo sapiens) (UniProt P08253); assay: Inhibition of human MMP2 catalytic domain using Mca-Pro-Leu-Gly-Leu-Dpa-Ala-Arg-NH2 fluorogenic substrate by spectrophotometric analysis
Chain of 72 kDa type IV collagenase (Homo sapiens) (P08253 110-660 limits assumed): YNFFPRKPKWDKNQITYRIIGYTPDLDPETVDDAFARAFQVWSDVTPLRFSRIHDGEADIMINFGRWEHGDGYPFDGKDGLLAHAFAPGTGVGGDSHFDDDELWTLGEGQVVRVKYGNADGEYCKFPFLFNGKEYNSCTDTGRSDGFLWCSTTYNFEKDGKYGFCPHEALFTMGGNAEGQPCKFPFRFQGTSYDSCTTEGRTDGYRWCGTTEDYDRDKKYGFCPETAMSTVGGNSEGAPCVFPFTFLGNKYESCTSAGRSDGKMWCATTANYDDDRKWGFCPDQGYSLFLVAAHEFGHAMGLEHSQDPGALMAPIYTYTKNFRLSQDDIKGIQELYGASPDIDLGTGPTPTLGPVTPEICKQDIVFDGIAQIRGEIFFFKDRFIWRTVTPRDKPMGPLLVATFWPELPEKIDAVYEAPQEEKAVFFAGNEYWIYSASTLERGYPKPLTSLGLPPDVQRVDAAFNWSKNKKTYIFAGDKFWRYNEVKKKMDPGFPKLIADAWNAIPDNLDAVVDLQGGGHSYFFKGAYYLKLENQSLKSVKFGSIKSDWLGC

[2] = target: Macrophage metalloelastase (Homo sapiens) (UniProt P39900); assay: Ratio of Ki for human MMP12 catalytic domain (Met105 to Lys263 residues) at pH 9.5 to Ki for human MMP12 catalytic domain (Met105 to Lys263 residues) at pH 6
Chain of Macrophage metalloelastase (Homo sapiens) (P39900 106-470 limits assumed): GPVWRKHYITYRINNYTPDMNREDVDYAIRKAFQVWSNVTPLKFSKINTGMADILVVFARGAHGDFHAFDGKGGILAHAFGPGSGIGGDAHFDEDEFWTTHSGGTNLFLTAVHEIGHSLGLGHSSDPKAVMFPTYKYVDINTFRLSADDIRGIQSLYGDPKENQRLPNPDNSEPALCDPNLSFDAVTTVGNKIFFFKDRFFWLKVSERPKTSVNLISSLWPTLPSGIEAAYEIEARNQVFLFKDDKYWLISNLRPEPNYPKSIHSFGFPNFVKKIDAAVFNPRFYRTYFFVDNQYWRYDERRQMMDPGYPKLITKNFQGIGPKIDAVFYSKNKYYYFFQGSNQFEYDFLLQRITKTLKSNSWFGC

[3] = target: Collagenase 3 (Homo sapiens, UniProt P45452); assay: Inhibition of human MMP13 catalytic domain using Mca-Pro-Leu-Gly-Leu-Dpa-Ala-Arg-NH2 fluorogenic substrate by spectrophotometric analysis
[4] = target: Stromelysin-2 (Homo sapiens, UniProt P09238); assay: Inhibition of human MMP10 catalytic domain using Mca-Pro-Leu-Gly-Leu-Dpa-Ala-Arg-NH2 fluorogenic substrate by spectrophotometric analysis
Chain of Stromelysin-2 (P09238 whole entry, the tested form may be a part): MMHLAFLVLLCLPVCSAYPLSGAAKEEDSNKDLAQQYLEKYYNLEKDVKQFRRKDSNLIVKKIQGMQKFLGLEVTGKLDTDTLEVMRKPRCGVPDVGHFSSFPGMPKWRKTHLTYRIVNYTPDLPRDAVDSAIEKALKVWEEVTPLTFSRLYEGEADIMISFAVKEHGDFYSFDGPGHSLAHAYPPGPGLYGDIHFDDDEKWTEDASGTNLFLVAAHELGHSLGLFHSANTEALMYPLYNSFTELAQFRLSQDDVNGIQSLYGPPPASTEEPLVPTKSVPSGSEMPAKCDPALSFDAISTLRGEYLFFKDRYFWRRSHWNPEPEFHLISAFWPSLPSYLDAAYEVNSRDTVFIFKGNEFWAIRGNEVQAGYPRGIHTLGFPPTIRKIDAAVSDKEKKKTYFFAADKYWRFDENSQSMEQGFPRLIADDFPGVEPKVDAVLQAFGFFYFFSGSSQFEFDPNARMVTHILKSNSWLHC

Activity [1]	Activity [3]	Compound	Ratio Ki [2]	Ki [4] [nM]	Ki [3] [nM]
Active	Active	NC(=O)[C@H](CCC(=O)O)NC(=O)[C@H](CCC(=O)O)NC(=O)[C@@H](CC(=O)O)Cc1cc(-c2ccc(-c3cccc(Cl)c3)cc2)no1	980	–	–
–	–	NC(=O)[C@H](CCC(=O)O)NC(=O)[C@H](CCC(=O)O)NC(=O)[C@H](Cc1cc(-c2ccc(-c3cccc(Cl)c3)cc2)no1)CP(=O)(O)c1ccc(Br)cc1	1100	149	139
–	–	NC(=O)[C@H](CCC(=O)O)NC(=O)[C@H](CCC(=O)O)NC(=O)[C@@H](CC(=O)NO)Cc1cc(-c2ccc(-c3cccc(Cl)c3)cc2)no1	–	1.4	0.008
